One block for each molecule: values may come before it. Where no end group is shown, it is not given here.
How the values were obtained:
1321-N1 cells = assay: Intracellular Ca2+ mobilization by Gq-coupled receptor agonists (FLIPR, Fluo-4), 1321-N1; assay type: cell-based, human; settings: 1321-N1, FLIPR, Fluo-4, 3 min, n = 3
Experimental: (§1) Cells were seeded in 96-well plates (clear bottom and black wall) at 2.5 × 10^4 cells per well on the day before assay. The cells (~80–100% confluence) were then washed with Hank’s balanced salt solution (HBSS) and aspirated, followed by addition of 100 μL of FLIPR labeling dye (containing Fluo-4 and probenecid in HBSS) to each well before incubation at 37 °C for 1 h. Finally, the 96-well plate containing the labeled cells was transferred to the FLIPR (Molecular Devices, San Jose, CA, USA), and 50 μL of HBSS (with or without agonists) was added to each well. The fluorescent signals that reflect the intracellular Ca^2+ transients were monitored by an excitation wavelength of 488 nm, and detection was undertaken with an emission wavelength from 510 to 570 nm for 3 min upon the drug treatments, as described previously.

primary astrocytes = assay: Intracellular Ca2+ mobilization by Gq-coupled receptor agonists (FLIPR, Fluo-4), primary cortical astrocytes; assay type: cell-based, mouse; settings: n = 4
Experimental: HEK293, U87-MG, 1321N1, SK-N-SH, and SK-N-MC cells were cultured in MEM supplemented with 10% (vol/vol) fetal bovine serum (FBS), 50 U/mL penicillin, and 50 μg/mL streptomycin. Primary astrocyte cultures were prepared from the cerebral cortexes of neonatal mice (P2). The cerebral hemispheres were isolated and transferred to ice-cold Hank’s buffer, and the meninges were carefully removed. Tissues were then minced into approximately 1 mm pieces, triturated, filtered through a 60 µm nylon screen, and collected by centrifugation at approximately 3000× g for 5 min. The cell pellets were dispersed with a pipette and resuspended in a medium containing 10% (vol/vol) FBS in low-glucose Dulbecco’s modified Eagle’s medium. After trituration, the cells were filtered through a 10 µm screen and then plated into 6-well plates at a density of 3 × 10^5 cells/mL and cultured for about 10 days. The medium was replaced twice per week. Dibutyryl cyclic adenosine monophosphate (DBcAMP; 0.15 mM, Sigma, St Louis, MO, USA) was added to induce differentiation when the cells were grown to 95% confluence. Primary mouse cortical neuronal cultures were obtained from E16 ICR mouse embryos. Briefly, cerebral cortices were removed from mouse embryos and mechanically dissociated in PBS with glucose (18 mM). Neurons were then seeded onto poly-L-lysine (1 mg/mL)-coated 96-well plates at 5 × 10^4 cells/well in a B27 Plus Neuronal culture system (Thermo Fisher Scientific), supplemented with 2 mM glutamine, 5 μM mercaptoethanol, 100 U/mL penicillin and 100 μg/mL streptomycin. The cultured neurons were maintained in a humidified incubator at 37 °C with 5% CO2 for 7 days prior to use.
as §1

U87-MG cells = assay: Intracellular Ca2+ mobilization by Gq-coupled receptor agonists (FLIPR, Fluo-4), U87-MG; assay type: cell-based, human; settings: U87-MG, FLIPR, Fluo-4, 3 min, n = 3
Experimental: as §1

[1] = system: B2R-mediated LIF secretion in U87-MG cells; assay: Inhibition of bradykinin-induced LIF production (ELISA), U87-MG; assay type: cell-based, human; settings: 10 μM inhibitor, 30 min pre-treatment, bradykinin 1 µM, 24 h
Experimental: Conditioned media were analyzed for the presence of multiple cytokines by using the cytokine multiplex assay kits (Merck Millipore, MA, USA) as previously described. Briefly, a bead mixture with various capture antibodies (50 μL) was added to a 96-well microtiter plate, followed by 50 μL of cytokine standard mix or test sample and then 25 μL of a biotinylated detection antibody mixture. The mixtures were incubated for 30 min at 25 °C with gentle shaking. Unbound antibodies were removed by three gentle washes. Finally, 50 μL of streptavidin–PE solution was added and incubated for another 30 min with gentle shaking. The detection beads were then washed again and resuspended in 120 μL of reading buffer. The Bio-Plex™ 200 system (Bio-Rad Laboratories, Hercules, CA, USA) with the Bio-Plex manager software (version 5.0) was utilized for signal detection and data analysis. Curve fitting was applied to each standard curve according to the manufacturer’s manual and sample concentrations were interpolated from the standard curves. Individual detections for LIF and IL-6 were performed using the corresponding ELISA kits from Abcam (Cambridge, UK) according to the manufacturer’s instructions.
The resulting Ca^2+ signal profiles were monitored by FLIPR for 3 min.

[2] = system: melatonin MT1 receptor with Gα16; assay type: cell-based, human
Experimental: Supplementary Methods (for Supplementary Figures) […]
(Merck Millipore, MA, USA). HEK293 cells (80-100% confluence in 6-well plates) stably expressing MT1R alone or together with Gα16 as described previously [Ref. 21] were treated with 1 μM of melatonin (Tocris Bioscience, Minneapolis, MN) in 1 mL of MEM per well without FBS for 24 h. The resulting conditioned media were collected in 1.5 mL microcentrifuge tubes, with the presence of secretory LIF and IL-6 quantified by ELISA assays (Abcam, Cambridge, UK) according to the manufacturer’s […]

STAT3 in SK-N-MC cells = assay: STAT3 Tyr705 phosphorylation in SK-N-MC by conditioned media from agonist-treated U87-MG; assay type: cell-based, human; settings: U87-MG treated with bombesin 1 μM, bradykinin 1 μM or histamine 10 μM, 24 h; media on SK-N-MC 15 min
Experimental: These conditioned media were either immediately applied to SK-N-SH/SK-N-MC cells (80–100% confluence) in 6-well plates for 15 min, or subjected to heat treatment on a 96 °C heat block for 5 min, and then cooled to 37 °C before they were applied to the SK-N-SH/SK-N-MC cells for 15 min. […] For the SK-N-MC-derived conditioned media, SK-N-MC cells (80–100% confluence) in a 10 cm culture dish were serum-starved in 10 mL of MEM (without FBS), with 1 mL of the resulting conditioned medium being collected at indicated time points (15 min, 1 h, 3 h, 6 h). Simultaneously, U87-MG cells (80–100% confluence) in 12-well plates were serum-starved in MEM for 6 h, followed by pretreatment of […] (5 μM, 15 min), and then challenged with the SK-N-MC-derived conditioned media (mentioned above) for 10 min before cell lysis. […]
SDS-PAGE and Western blotting were performed as described in our previous studies. […] The amount of protein in each sample was determined by detergent compatible (DC) protein assay according to the supplier’s instruction (Bio-Rad, Hercules, CA, USA). […] Resolved proteins were detected by specific primary antibodies and horseradish peroxidase-conjugated secondary antisera. The level of β-actin was determined as an internal control.

[3] = system: STAT3 in primary mouse astrocytes; assay: STAT3 phosphorylation by direct application of cytokine, primary astrocytes; assay type: cell-based; settings: 0–100 ng/mL, 15 min, n = 3
Experimental: To determine if the experimental cells were readily responsive to LIF and IL-6, SK-N-MC cells, mouse primary neurons and primary astrocytes (80–100% confluence in 12-well plates) were serum-starved for 6 h, followed by treatment of indicated concentrations (0–100 ng/mL) of LIF and IL-6 for 15 min. The subsequent cell lysates were subjected to SDS-PAGE and Western blot with specific antibodies to detect stimulatory phosphorylated forms and the total amounts of STAT3.
SDS-PAGE and Western blotting were performed as described in our previous studies. In brief, cells in 6-well plates (5 × 10^5 cells/well) were lysed in 500 μL of ice-cold lysis buffer (50 mM Tris-HCl at pH 7.5 containing 100 mM NaCl, 5 mM EDTA, 40 mM NaP2O7, 1% Triton X-100, 1 mM dithiothreitol, 200 μM Na3VO4, 100 μM phenylmethylsulfonyl fluoride, 2 μg/mL leupeptin, 4 μg/mL aprotinin, and 0.7 μg/mL pepstatin) and then gently shaken for 30 min. The amount of protein in each sample was determined by detergent compatible (DC) protein assay according to the supplier’s instruction (Bio-Rad, Hercules, CA, USA). Clarified lysates (30 μg protein per sample) were resolved on 12% SDS-polyacrylamide gels and then transferred to nitrocellulose membranes (Westborough, MA, USA). Resolved proteins were detected by specific primary antibodies and horseradish peroxidase-conjugated secondary antisera. The level of β-actin was determined as an internal control. Immunoblots were visualized by chemiluminescence with the WesternBright ECL reagents from Advansta (San Jose, CA, USA). Chemiluminescence signals were then detected by ChemiDoc imaging systems (Bio-Rad, Hercules, CA, USA) with the subsequent band densities quantified by ImageJ (https://imagej.net/ij/) analysis software (National Institutes of Health, MD, USA). All primary antibodies which specifically recognize B1R, B2R, ERK, p-ERK, p38, p-p38, JNK, p-JNK, STAT3, p-STAT3, and β-actin were applied at 1:1000 dilution for Western blotting.

Molecule: Nc1ncnc2c1ncn2[C@@H]1O[C@H](COP(=O)(O)OP(=O)(O)OP(=O)(O)O)[C@@H](O)[C@H]1O [ATP]
- intracellular Ca2+ response (1321-N1 cells; 1 μM agonist): did not respond to ATP for triggering Ca^2+ transients
- intracellular Ca2+ mobilization (primary astrocytes; 1 μM agonist): significantly stimulated Ca^2+ mobilization
- intracellular Ca2+ response (U87-MG cells; 1 μM agonist): effective in U87-MG cells

Molecule: Cn1c2ccccc2c2c3c(c4c5ccccc5n(CCC#N)c4c21)CNC3=O [Go6976]
- inhibition of bradykinin-induced LIF secretion by protein kinase inhibitors [1]: Partial inhibition of LIF secretion

Molecule: COc1cccc(-c2cc(=O)c3ccccc3o2)c1N [PD98059]
- inhibition of bradykinin-induced LIF secretion by protein kinase inhibitors [1]: found to require

Molecule: C[S+]([O-])c1ccc(-c2nc(-c3ccncc3)c(-c3ccc(F)cc3)[nH]2)cc1 (centres unmarked) [SB203580]
- inhibition of bradykinin-induced LIF secretion by protein kinase inhibitors [1]: found to require

Molecule: Oc1c2ccccc2c2c3c(cccc13)N=N2 [SP600125]
- inhibition of bradykinin-induced LIF secretion by protein kinase inhibitors [1]: partially inhibited bradykinin-induced LIF secretion

Molecule: CN(C)S(=O)(=O)c1ccc2c(c1)/C(=C/c1cc3c([nH]1)CCCC3)C(=O)N2 [SU6656]
- inhibition of bradykinin-induced LIF secretion by protein kinase inhibitors [1]: found to require

Molecule: N[C@@H](CCC(=O)O)C(=O)O [glutamate]
- intracellular Ca2+ mobilization (primary astrocytes; 1 μM agonist): significantly stimulated Ca^2+ mobilization

- IL-6 release [2]: induced the release of both LIF and IL-6
- LIF release [2]: induced the release of both LIF and IL-6
Molecule: COc1ccc2[nH]cc(CCNC(C)=O)c2c1 [melatonin]

Molecule: CNC[C@H](O)c1cccc(O)c1 [phenylephrine]
- intracellular Ca2+ mobilization (primary astrocytes; 10 μM agonist): significantly stimulated Ca^2+ mobilization

Molecule: CCCCC[C@H](O)/C=C/[C@H]1[C@H](O)CC(=O)[C@@H]1C/C=C\CCCC(=O)O [prostaglandin E2]
- intracellular Ca2+ mobilization (primary astrocytes; 1 μM agonist): significantly stimulated Ca^2+ mobilization

Molecule: NCCc1c[nH]c2ccc(O)cc12 [serotonin]
- intracellular Ca2+ response (1321-N1 cells; 10 μM agonist): could not trigger the activity
- intracellular Ca2+ response (U87-MG cells; 10 μM agonist): could not trigger the activity

Molecule: CCCCCCCCCCCCC/C=C/[C@@H](O)[C@@H](N)COP(=O)(O)O [sphingosine-1-phosphate]
- intracellular Ca2+ response (1321-N1 cells; 1 μM agonist): significantly stimulated intracellular Ca^2+ responses
- intracellular Ca2+ mobilization (primary astrocytes; 1 μM agonist): significantly stimulated Ca^2+ mobilization
- intracellular Ca2+ response (U87-MG cells; 1 μM agonist): significantly stimulated intracellular Ca^2+ responses

Molecule: angiotensin II (DRVYIHPF; Angiotensin-2; UniProt P01019 25-32, looked up)
- intracellular Ca2+ response (U87-MG cells; 1 μM agonist): effective in U87-MG cells

Molecule: bombesin
- STAT3 Tyr705 phosphorylation by conditioned media (STAT3 in SK-N-MC cells): sometimes failed to induce STAT3 phosphorylation
- intracellular Ca2+ response (1321-N1 cells; 1 μM agonist): significantly stimulated intracellular Ca^2+ responses
- intracellular Ca2+ mobilization (primary astrocytes; 1 μM agonist): significantly stimulated Ca^2+ mobilization
- intracellular Ca2+ response (U87-MG cells; 1 μM agonist): significantly stimulated intracellular Ca^2+ responses

Molecule: endothelin
- intracellular Ca2+ response (1321-N1 cells; 100 nM agonist): elicited Ca^2+ responses in 1321-N1 cells
- intracellular Ca2+ mobilization (primary astrocytes; 100 nM agonist): significantly stimulated Ca^2+ mobilization

Molecule: interleukin-6 [IL-6]
- STAT3 phosphorylation [3]: significant stimulatory phosphorylation of STAT3

Molecule: neurokinin B
- intracellular Ca2+ mobilization (primary astrocytes; 1 μM agonist): significantly stimulated Ca^2+ mobilization

Molecule: neuromedin U25 (FRVDEEFQSPFASQSRGYFLFRPRN; ends and bridges not checked; UniProt P48645 142-166, looked up)
- intracellular Ca2+ response (U87-MG cells; 1 μM agonist): effective in U87-MG cells

Molecule: neurotensin
- intracellular Ca2+ response (1321-N1 cells; 1 μM agonist): could not trigger the activity
- intracellular Ca2+ response (U87-MG cells; 1 μM agonist): could not trigger the activity

Molecule: oxytocin
- intracellular Ca2+ mobilization (primary astrocytes; 1 μM agonist): significantly stimulated Ca^2+ mobilization
- intracellular Ca2+ response (U87-MG cells; 1 μM agonist): effective in U87-MG cells
